SMILES strings stand for the structures. “Also recorded” adds a separate entry of the source. Read-outs that look alike come from different tables or passages of the source.

For this test, the system named is regeneration of 11-cis-retinal. Put plainly: Single dose time course in the in vivo isomerase assay at 0.3 mg/kg. Also noted: species or system BALB/c mice. The conditions noted are these: for activity at 0.3 mg/kg: Mus musculus, read-out: Percent Control (Avg. % Inhibition). The protocol: All test compounds were stored at room temperature, dessicated.
The compounds were dissolved in di-water at the concentration of 0.068 mg/mL and stored overnight at 4° C.
52 Male BALB/c mice (Charles River Laboratories) were used for this study. The mice were approximately 8 weeks at the initiation of dosing with an average body weight of 23 grams.
The day prior to dose administration 52 BALB/c mice were placed into a dark room and dark adapted for a minimum of 12 hours prior to dose administration. The mice were maintained in the dark for the duration of the study.
Each animal was removed from its cage and dosed accordingly to the study design in Table 10 (see below). Each animal was administered 0.1 mL of the appropriate test article or vehicle orally using a 1 mL syringe fitted with a 23 gauge oral gavage needle. At 2, 4, 6, 8, 16 or 24 hours following dose administration, animals were removed from the dark and exposed to 5000 Lux white light for 10 minutes to photobleach their eyes. Following the completion of the photobleach the animals were returned to the dark for 2 hours to allow for the regeneration of 11-cis-retinal in the eyes. Two hours after photobleaching each animal was euthanized with carbon dioxide followed by cervical dislocation, in the dark under red light. The light control group was euthanized immediately following photobleaching. Immediately following the cervical dislocation both eyes of each animal were removed and transferred into separate tubes, flash frozen in liquid nitrogen and stored in the dark at −80° C. until processing and analysis.
All sample processing procedures were performed in the dark under red light.
Extracted samples were analyzed using an Agilent 1100 HPLC system according to the procedure outlined in Table 12 (see below)
HPLC analysis of the eyes measures the peak area units of the 110cis-Ral-Oxime_syn. Signal.
Data analysis % inhibition (drug vs. recovery control). % control (drug vs. light control), and One-way ANOVA (followed by Tukey's Multiple Comparison) were performed using peak area units and performed by Prism software. Data are represented as mean and standard deviation.

As for `NCC[C@@H](O)c1cccc(OCC2CCOCC2)c1` [Example 1], under “BALB/c mice, single oral 0.3 mg/kg, 2, 4, 6, 8, 16 and 24 hours, listed as compound A, 0.3 mg/kg”, the “significance of inhibitory effect on the recovery of 11-cis-retinal vs. recovery control” value is “statistically significant difference, P<0.001, from the recovery control group for the 2, 4 and 6 hour time points; also recorded: not a statistically significant difference, P>0.05 for the 8, 16 and 24 time points; also recorded: significant inhibitory effect at 2, 4 and 6 hours; also recorded: no significant effect on the recovery of 11-cis-retinal at the 8, 16 and 24 hour time points; also recorded: statistically significant from the control group at the 2, 4, and 6 hour time points”. For the same compound, the activity at 0.3 mg/kg runs as follows: (BALB/c mice, single oral 0.3 mg/kg, time point 2 hours) 2%; (BALB/c mice, single oral 0.3 mg/kg, time point 4 hours) 11.5%; (BALB/c mice, single oral 0.3 mg/kg, time point 6 hours) 43.7%; (BALB/c mice, single oral 0.3 mg/kg, time point 8 hours) 79.8%; (BALB/c mice, single oral 0.3 mg/kg, time point 16 hours) 98.5%; (BALB/c mice, single oral 0.3 mg/kg, time point 24 hours) 95.8%. Also, for the setting “time course experiment, 0.3 mg/kg”, the “times more active than compound D” value is “greater than 10 ×”.

The record behind these values is patent publication US9133154B2, “Substituted 3-phenylpropylamine derivatives for the treatment of ophthalmic diseases and disorders” (Acucela Inc., priority 2013, dated 2015).
